Values of other authors, collected in patent US20120238571A1, “INDAZOLE DERIVATIVES AS PI 3-KINASE” (Glaxo Group Limited, priority 2009, published 2012).
Read-outs that look alike come from different tables or passages of the source.

Columns and labels:
CK2 protein kinase = CK2 protein kinase (Homo sapiens, UniProt P68400)
Sequence of CK2 protein kinase (P68400 whole entry): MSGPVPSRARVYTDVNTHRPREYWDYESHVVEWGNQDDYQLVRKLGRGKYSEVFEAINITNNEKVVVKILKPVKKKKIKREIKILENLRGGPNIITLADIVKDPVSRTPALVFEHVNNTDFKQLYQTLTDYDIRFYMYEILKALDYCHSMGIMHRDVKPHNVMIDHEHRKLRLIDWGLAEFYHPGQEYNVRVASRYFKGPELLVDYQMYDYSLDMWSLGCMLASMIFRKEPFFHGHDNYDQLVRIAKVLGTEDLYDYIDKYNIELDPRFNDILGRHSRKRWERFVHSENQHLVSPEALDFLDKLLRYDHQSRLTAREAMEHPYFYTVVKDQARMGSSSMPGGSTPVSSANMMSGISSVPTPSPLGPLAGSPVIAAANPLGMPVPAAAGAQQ

## O=c1cc(N2CCOCC2)oc2c(-c3ccccc3)cccc12 [LY294002]
Class I PI3-kinases; each of the Class I PI3-kinases, Fruman et al. 1998, read-out: IC50 against each of these PI3-kinases
  IC50: 15 to 20 µM
CK2 protein kinase
  IC50: 5 to 10 µM

## COC[C@H]1OC(=O)c2coc3c2[C@@]1(C)C1=C(C3=O)[C@@H]2CCC(=O)[C@@]2(C)C[C@H]1OC(C)=O [wortmannin]
Class I PI3-kinases; each of the four Class I PI3-kinases, read-out: IC50 against each of the various Class I PI3-kinases
  IC50: 0.001 to 0.01 µM
